# Measurements reported in patent US11154060B2, “Microbiocidal oxadiazole derivatives” (SYNGENTA PARTICIPATIONS AG, priority 2016, dated 2021).
# Tests used:
# [1] = tested on: Puccinia recondita f. sp. tritici; experiment: Puccinia recondita f. sp. tritici / wheat / leaf disc preventative (brown rust); type: in vivo; conditions: foliar, wheat leaf segments cv. Kanzler, inoculated 1 day after application, assessed 7-9 days after application, read-out: control of Puccinia recondita f. sp. tritici compared to untreated control
# Experimental: Leaf disks or leaf segments of various plant species are cut from plants grown in a greenhouse. The cut leaf disks or segments are placed in multiwell plates (24-well format) onto water agar. The leaf disks are sprayed with a test solution before (preventative) or after (curative) inoculation. Compounds to be tested are prepared as DMSO solutions (max. 10 mg/ml) which are diluted to the appropriate concentration with 0.025% Tween20 just before spraying. The inoculated leaf disks or segments are incubated under defined conditions (temperature, relative humidity, light, etc.) according to the respective test system. A single evaluation of disease level is carried out 3 to 14 days after inoculation, depending on the pathosystem. Percent disease control relative to the untreated check leaf disks or segments is then calculated. Wheat leaf segments cv. Kanzler are placed on agar in multiwell plates (24-well format) and sprayed with the formulated test compound diluted in water. The leaf disks are inoculated with a spore suspension of the fungus 1 day after application. The inoculated leaf segments are incubated at 19° C. and 75% rh under a light regime of 12 h light/12 h darkness in a climate cabinet and the activity of a compound is assessed as percent disease control compared to untreated when an appropriate level of disease damage appears in untreated check leaf segments (7-9 days after application).
# [2] = tested on: Puccinia recondita f. sp. tritici; experiment: Puccinia recondita f. sp. tritici / wheat / leaf disc curative (brown rust); type: in vivo; conditions: foliar, wheat leaf segments cv. Kanzler, applied 1 day after inoculation, assessed 6-8 days after application, read-out: control of Puccinia recondita f. sp. tritici compared to untreated control
# Experimental: Leaf disks or leaf segments of various plant species are cut from plants grown in a greenhouse. The cut leaf disks or segments are placed in multiwell plates (24-well format) onto water agar. The leaf disks are sprayed with a test solution before (preventative) or after (curative) inoculation. Compounds to be tested are prepared as DMSO solutions (max. 10 mg/ml) which are diluted to the appropriate concentration with 0.025% Tween20 just before spraying. The inoculated leaf disks or segments are incubated under defined conditions (temperature, relative humidity, light, etc.) according to the respective test system. A single evaluation of disease level is carried out 3 to 14 days after inoculation, depending on the pathosystem. Percent disease control relative to the untreated check leaf disks or segments is then calculated. Wheat leaf segments cv. Kanzler are placed on agar in multiwell plates (24-well format). The leaf segments are inoculated with a spore suspension of the fungus. Plates are stored in darkness at 19° C. and 75% rh. The formulated test compound diluted in water is applied 1 day after inoculation. The leaf segments are incubated at 19° C. and 75% rh under a light regime of 12 h light/12 h darkness in a climate cabinet and the activity of a compound is assessed as percent disease control compared to untreated when an appropriate level of disease damage appears in untreated check leaf segments (6-8 days after application).
# [3] = tested on: Glomerella lagenarium (Colletotrichum lagenarium); experiment: Glomerella lagenarium (Colletotrichum lagenarium) liquid culture / cucumber / preventative (anthracnose); type: cell-based; conditions: Colletotrichum orbiculare, liquid culture in PDB, 24° C., 3-4 days after application, read-out: control of Glomerella lagenarium compared to untreated control (inhibition of growth, photometric)
# Experimental: Mycelia fragments or conidia suspensions of a fungus prepared either freshly from liquid cultures of the fungus or from cryogenic storage, are directly mixed into nutrient broth. DMSO solutions of the test compound (max. 10 mg/ml) are diluted with 0.025% Tween20 by a factor of 50 and 10 μl of this solution is pipetted into a microtiter plate (96-well format). The nutrient broth containing the fungal spores/mycelia fragments is then added to give an end concentration of the tested compound. The test plates are incubated in the dark at 24° C. and 96% relative humidity. The inhibition of fungal growth is determined photometrically after 2 to 7 days, depending on the pathosystem, and percent antifungal activity relative to the untreated check is calculated. Conidia of the fungus from cryogenic storage are directly mixed into nutrient broth (PDB potato dextrose broth). After placing a (DMSO) solution of test compound into a microtiter plate (96-well format), the nutrient broth containing the fungal spores is added. The test plates are incubated at 24° C. and the inhibition of growth is measured photometrically 3-4 days after application.
# Uromyces viciae-fabae = Uromyces viciae-fabae / field bean / leaf disc preventative (faba-bean rust); type: in vivo; conditions: foliar, 288 h, 100 ppm in the applied formulation, field bean leaf discs, inoculated two hours after application, 12 days after application, read-out: disease control compared to untreated control leaf discs
# Experimental: Leaf disks or leaf segments of various plant species are cut from plants grown in a greenhouse. The cut leaf disks or segments are placed in multiwell plates (24-well format) onto water agar. The leaf disks are sprayed with a test solution before (preventative) or after (curative) inoculation. Compounds to be tested are prepared as DMSO solutions (max. 10 mg/ml) which are diluted to the appropriate concentration with 0.025% Tween20 just before spraying. The inoculated leaf disks or segments are incubated under defined conditions (temperature, relative humidity, light, etc.) according to the respective test system. A single evaluation of disease level is carried out 3 to 14 days after inoculation, depending on the pathosystem. Percent disease control relative to the untreated check leaf disks or segments is then calculated. Field bean leaf discs are placed on water agar in multiwell plates (96-well format) and 10 μl of the formulated test compound diluted in acetone and a spreader pipetted onto the leaf disc. Two hours after application leaf discs are inoculated by spraying a spore suspension on the lower leaf surface. The leaf discs are incubated in a climate cabinet at 22° C. with 18 hour day and 70% relative humidity. The activity of a compound is assessed as percent disease control compared to untreated when an appropriate level of disease damage appears in untreated check leaf disks (12 days after application).
# Phakopsora pachyrhizi = Phakopsora pachyrhizi / soybean / leaf disc preventative (Asian soybean rust); type: in vivo; conditions: foliar, soybean leaf disks, inoculated one day after application, assessed 12-14 days after application, read-out: control of Phakopsora pachyrhizi compared to untreated control
# Experimental: Leaf disks or leaf segments of various plant species are cut from plants grown in a greenhouse. The cut leaf disks or segments are placed in multiwell plates (24-well format) onto water agar. The leaf disks are sprayed with a test solution before (preventative) or after (curative) inoculation. Compounds to be tested are prepared as DMSO solutions (max. 10 mg/ml) which are diluted to the appropriate concentration with 0.025% Tween20 just before spraying. The inoculated leaf disks or segments are incubated under defined conditions (temperature, relative humidity, light, etc.) according to the respective test system. A single evaluation of disease level is carried out 3 to 14 days after inoculation, depending on the pathosystem. Percent disease control relative to the untreated check leaf disks or segments is then calculated. Soybean leaf disks are placed on water agar in multiwell plates (24-well format) and sprayed with the formulated test compound diluted in water. One day after application leaf discs are inoculated by spraying a spore suspension on the lower leaf surface. After an incubation period in a climate cabinet of 24-36 hours in darkness at 20° C. and 75% rh leaf disc are kept at 20° C. with 12 h light/12 h darkness and 75% rh. The activity of a compound is assessed as percent disease control compared to untreated when an appropriate level of disease damage appears in untreated check leaf disks (12-14 days after application).
SMILES,pest or weed control at 200 ppm [1] [%],pest or weed control at 200 ppm [2] [%],inhibition at 20 ppm [3] [%],pest or weed control at 100 ppm (Uromyces viciae-fabae) [%],pest or weed control at 200 ppm (Phakopsora pachyrhizi) [%]
"CON(C(=O)Cc1ccc(-c2noc(C(F)(F)F)n2)cc1)C1COC1 [Compound 2.19, N-methoxy-N-(oxetan-3-yl)-2-[4-[5-(trifluoromethyl)-1,2,4-oxadiazol-3-yl]phenyl]acetamide]",≥ 80,≥ 80,≥ 80,–,–
"COC(=O)C(C)N(OC)C(=O)c1ccc(-c2noc(C(F)(F)F)n2)cc1 (stereo not shown) [Compound 2.9, methyl 2-[methoxy-[4-[5-(trifluoromethyl)-1,2,4-oxadiazol-3-yl]benzoyl]amino]propanoate]",–,≥ 80,≥ 80,≥ 80,–
"CON(C(=O)Cc1ccc(-c2noc(C(F)(F)F)n2)c(F)c1)C(C)C1CC1 (stereo not shown) [Compound 1.25, N-(1-cyclopropylethyl)-2-[3-fluoro-4-[5-(trifluoromethyl)-1,2,4-oxadiazol-3-yl]phenyl]-N-methoxy-acetamide]",–,≥ 80,≥ 80,–,–
"CON(C(=O)c1ccc(-c2noc(C(F)(F)F)n2)cc1F)C(C)COC1CCCCO1 (stereo not shown) [Compound 1.9, 2-fluoro-N-methoxy-N-(1-methyl-2-tetrahydropyran-2-yloxy-ethyl)-4-[5-(trifluoromethyl)-1,2,4-oxadiazol-3-yl]benzamide]",–,–,≥ 80,≥ 80,–
"CON(C(=O)Cc1ccc(-c2noc(C(F)(F)F)n2)cc1)C(C)C1CC1 (stereo not shown) [Compound 2.21, N-(1-cyclopropylethyl)-N-methoxy-2-[4-[5-(trifluoromethyl)-1,2,4-oxadiazol-3-yl]phenyl]acetamide]",–,–,≥ 80,–,–
"COC(=O)[C@H](C)N(OC)C(=O)c1ccc(-c2noc(C(F)(F)F)n2)cc1 [Compound 2.3, methyl (2S)-2-[methoxy-[4-[5-(trifluoromethyl)-1,2,4-oxadiazol-3-yl]benzoyl]amino]propanoate]",–,≥ 80,≥ 80,≥ 80,–
"COC(=O)C1(N(O)C(=O)c2ccc(-c3noc(C(F)(F)F)n3)cc2)CCN(OC)CC1 [Compound 2.1, methyl 4-[hydroxy-[4-[5-(trifluoromethyl)-1,2,4-oxadiazol-3-yl]benzoyl]amino]-1-methoxy-piperidine-4-carboxylate]",≥ 80,–,≥ 80,≥ 80,≥ 80
"CON(C(=O)Cc1ccc(-c2noc(C(F)(F)F)n2)cc1)C(C)c1ccccc1 (stereo not shown) [Compound 2.20, N-methoxy-N-(1-phenylethyl)-2-[4-[5-(trifluoromethyl)-1,2,4-oxadiazol-3-yl]phenyl]acetamide]",–,–,≥ 80,–,–
"CON(CC1CC1C1CC1)C(=O)Cc1ccc(-c2noc(C(F)(F)F)n2)cc1 (stereo not shown) [Compound 2.25, N-[(2-cyclopropylcyclopropyl)methyl]-N-methoxy-2-[4-[5-(trifluoromethyl)-1,2,4-oxadiazol-3-yl]phenyl]acetamide]",–,–,≥ 80,–,–
"CON(C)C(=O)c1ccc(-c2noc(C(F)(F)F)n2)cc1F [Compound 1.2, 2-fluoro-N-methoxy-N-methyl-4-[5-(trifluoromethyl)-1,2,4-oxadiazol-3-yl]benzamide]",≥ 80,≥ 80,–,≥ 80,≥ 80
"CON(Cc1c(Cl)cc(Cl)cc1Cl)C(=O)c1ccc(-c2noc(C(F)(F)F)n2)cc1F [Compound 1.3, 2-fluoro-N-methoxy-N-[(2,4,6-trichlorophenyl)methyl]-4-[5-(trifluoromethyl)-1,2,4-oxadiazol-3-yl]benzamide]",–,–,–,≥ 80,–
"CON(C)C(=O)Cc1ccc(-c2noc(C(F)(F)F)n2)c(F)c1 [Compound 1.18, 2-[3-fluoro-4-[5-(trifluoromethyl)-1,2,4-oxadiazol-3-yl]phenyl]-N-methoxy-N-methyl-acetamide]",≥ 80,≥ 80,≥ 80,–,≥ 80
"CON(CC1CC1)C(=O)Cc1ccc(-c2noc(C(F)(F)F)n2)cc1 [Compound 2.22, N-(cyclopropylmethyl)-N-methoxy-2-[4-[5-(trifluoromethyl)-1,2,4-oxadiazol-3-yl]phenyl]acetamide]",–,≥ 80,≥ 80,–,≥ 80
"O=C(Cc1ccc(-c2noc(C(F)(F)F)n2)cc1)N(O)CC1CC1C1CC1 (stereo not shown) [Compound 2.26, N-[(2-cyclopropylcyclopropyl)methyl]-N-hydroxy-2-[4-[5-(trifluoromethyl)-1,2,4-oxadiazol-3-yl]phenyl]acetamide]",≥ 80,≥ 80,≥ 80,–,–
"CON(C(=O)Cc1ccc(-c2noc(C(F)(F)F)n2)c(F)c1)C(C)c1ccccc1 (stereo not shown) [Compound 1.24, 2-[3-fluoro-4-[5-(trifluoromethyl)-1,2,4-oxadiazol-3-yl]phenyl]-N-methoxy-N-(1-phenylethyl)acetamide]",≥ 80,–,≥ 80,–,–
"CON(C(=O)c1ccc(-c2noc(C(F)(F)F)n2)cc1F)C(C)CO (stereo not shown) [Compound 1.12, 2-fluoro-N-(2-hydroxy-1-methyl-ethyl)-N-methoxy-4-[5-(trifluoromethyl)-1,2,4-oxadiazol-3-yl]benzamide]",–,≥ 80,≥ 80,≥ 80,–
